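Interpolation was linear, between the two tested concentrations surrounding the appropriate level; five concentrations were tested over 48 hours in 96-well plates. Abbreviation: GI50, concentration required for 50% inhibition of growth.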 The source made the active and inactive calls. Cut-off read from the data, not from the text of the source: active = GI50 up to about 1.1 µM and inactive = higher.
Legend:
Test in all cases: NCI anticancer screen, dose series, 48 h
NCI-H226 = tested on: NCI-H226
OVCAR-8 = tested on: OVCAR-8
MDA-N = tested on: MDA-N
OVCAR-5 = tested on: OVCAR-5
CAKI-1 = tested on: CAKI-1
T47D = tested on: T47D
EKVX = tested on: EKVX
HT-29 = tested on: HT-29
UACC-257 = tested on: UACC-257
IGROV-1 = tested on: IGROV-1
SK-MEL-2 = tested on: SK-MEL-2
PC-3 = tested on: PC-3
RXF 393 = tested on: RXF 393
K562 = tested on: K562
SN12C = tested on: SN12C
Malme-3M = tested on: Malme-3M
SF-539 = tested on: SF-539
SF-268 = tested on: SF-268
MDA-MB-435 = tested on: MDA-MB-435
HCT-116 = tested on: HCT-116
UACC-62 = tested on: UACC-62
HCC 2998 = tested on: HCC 2998
KM12 = tested on: KM12
SW-620 = tested on: SW-620
SF-295 = tested on: SF-295
HOP-62 = tested on: HOP-62
DU-145 = tested on: DU-145
HCT-15 = tested on: HCT-15
BT-549 = tested on: BT-549
786-0 = tested on: 786-0
MCF7 = tested on: MCF7
SK-MEL-28 = tested on: SK-MEL-28
Hs-578T = tested on: Hs-578T
NCI/ADR-RES = tested on: NCI/ADR-RES
U-251 = tested on: U-251
LOX IMVI = tested on: LOX IMVI
MOLT-4 = tested on: MOLT-4
NCI-H460 = tested on: NCI-H460
SK-OV-3 = tested on: SK-OV-3
OVCAR-3 = tested on: OVCAR-3
RPMI-8226 = tested on: RPMI-8226
HL-60 = tested on: HL-60
COLO 205 = tested on: COLO 205
TK-10 = tested on: TK-10
M14 = tested on: M14
NCI-H522 = tested on: NCI-H522
ACHN = tested on: ACHN
OVCAR-4 = tested on: OVCAR-4
SNB-75 = tested on: SNB-75
MDA-MB-231 = tested on: MDA-MB-231
SNB-19 = tested on: SNB-19
CCRF-CEM = tested on: CCRF-CEM
A498 = tested on: A498
NCI-H23 = tested on: NCI-H23
A549 = tested on: A549
HOP-92 = tested on: HOP-92
UO-31 = tested on: UO-31
SK-MEL-5 = tested on: SK-MEL-5

`O=c1cc(N2CCOCC2)[nH]c(=O)n1-c1ccc(F)cc1` was tested, and the GI50 (NCI-H226) was > 100 µM (inactive), the GI50 (OVCAR-8) was > 100 µM (inactive) and the GI50 (MDA-N) was > 100 µM (inactive). For the same molecule, the GI50 (OVCAR-5) was > 100 µM (inactive), the GI50 (CAKI-1) was > 100 µM (inactive) and the GI50 (T47D) was > 100 µM (inactive). The GI50 (EKVX) was > 100 µM (inactive), the GI50 (HT-29) was > 100 µM (inactive) and the GI50 (UACC-257) was > 100 µM (inactive). The GI50 (IGROV-1) was > 100 µM (inactive), the GI50 (SK-MEL-2) was > 100 µM (inactive) and the GI50 (PC-3) was > 100 µM (inactive). For the same molecule, the GI50 (RXF 393) was > 100 µM (inactive), the GI50 (K562) was > 100 µM (inactive) and the GI50 (SN12C) was > 100 µM (inactive). The GI50 (Malme-3M) was > 100 µM (inactive), the GI50 (SF-539) was > 100 µM (inactive) and the GI50 (SF-268) was > 100 µM (inactive). For the same molecule, the GI50 (MDA-MB-435) was > 100 µM (inactive), the GI50 (HCT-116) was > 100 µM (inactive) and the GI50 (UACC-62) was > 100 µM (inactive). The GI50 (HCC 2998) was > 100 µM (inactive), the GI50 (KM12) was > 100 µM (inactive) and the GI50 (SW-620) was > 100 µM (inactive). For the same molecule, the GI50 (SF-295) was > 100 µM (inactive), the GI50 (HOP-62) was > 100 µM (inactive) and the GI50 (DU-145) was > 100 µM (inactive). The GI50 (HCT-15) was greater than 100000 nM, the GI50 (BT-549) was > 100 µM (inactive) and the GI50 (786-0) was > 100 µM (inactive). The GI50 (MCF7) was > 100 µM (inactive), the GI50 (SK-MEL-28) was > 100 µM (inactive) and the GI50 (Hs-578T) was > 100 µM (inactive). For the same molecule, the GI50 (NCI/ADR-RES) was > 100 µM (inactive), the GI50 (U-251) was > 100 µM (inactive) and the GI50 (LOX IMVI) was > 100 µM (inactive). For the same molecule, the GI50 (MOLT-4) was > 100 µM (inactive), the GI50 (NCI-H460) was > 100 µM (inactive) and the GI50 (SK-OV-3) was > 100 µM (inactive). The GI50 (OVCAR-3) was > 100 µM (inactive), the GI50 (RPMI-8226) was > 100 µM (inactive) and the GI50 (HL-60) was > 100 µM (inactive). For the same molecule, the GI50 (COLO 205) was > 100 µM (inactive), the GI50 (TK-10) was > 100 µM (inactive) and the GI50 (M14) was > 100 µM (inactive). The GI50 (NCI-H522) was > 100 µM (inactive), the GI50 (ACHN) was > 100 µM (inactive) and the GI50 (OVCAR-4) was > 100 µM (inactive). The GI50 (SNB-75) was > 100 µM (inactive), the GI50 (MDA-MB-231) was > 100 µM (inactive) and the GI50 (SNB-19) was > 100 µM (inactive). For the same molecule, the GI50 (CCRF-CEM) was > 100 µM (inactive), the GI50 (A498) was > 100 µM (inactive) and the GI50 (NCI-H23) was > 100 µM (inactive).
With `COc1ccc2ccccc2c1C1NC(=O)c2ccccc2N1` (stereo unspecified) the GI50 (NCI-H226) was 1.57 µM (inactive), the GI50 (OVCAR-8) was 3.03 µM (inactive) and the GI50 (MDA-N) was 0.173 µM (active). The GI50 (OVCAR-5) was 3.39 µM (inactive), the GI50 (CAKI-1) was 2.62 µM (inactive) and the GI50 (A549) was 1.51 µM (inactive). For the same molecule, the GI50 (T47D) was 12.1 µM (inactive), the GI50 (EKVX) was 2.51 µM (inactive) and the GI50 (HT-29) was 0.873 µM (active). The GI50 (UACC-257) was 20.8 µM (inactive), the GI50 (IGROV-1) was 1.72 µM (inactive) and the GI50 (SK-MEL-2) was 2.08 µM (inactive). The GI50 (PC-3) was 0.519 µM (active), the GI50 (RXF 393) was 1.37 µM (inactive) and the GI50 (K562) was 0.279 µM (active). For the same molecule, the GI50 (SN12C) was 2.67 µM (inactive), the GI50 (Malme-3M) was 0.634 µM (active) and the GI50 (HOP-92) was 14.8 µM (inactive). The GI50 (SF-539) was 1.55 µM (inactive), the GI50 (SF-268) was 3.08 µM (inactive) and the GI50 (UO-31) was 11.3 µM (inactive). For the same molecule, the GI50 (MDA-MB-435) was 0.234 µM (active), the GI50 (HCT-116) was 0.614 µM (active) and the GI50 (UACC-62) was 0.455 µM (active). The GI50 (HCC 2998) was 1.95 µM (inactive), the GI50 (KM12) was 0.733 µM (active) and the GI50 (SW-620) was 0.536 µM (active). The GI50 (SF-295) was 0.578 µM (active), the GI50 (HOP-62) was 3.51 µM (inactive) and the GI50 (DU-145) was 1.53 µM (inactive). For the same molecule, the GI50 (HCT-15) was 436 nM, the GI50 (BT-549) was > 100 µM (inactive) and the GI50 (786-0) was 1.53 µM (inactive). For the same molecule, the GI50 (MCF7) was 0.78 µM (active), the GI50 (SK-MEL-28) was 0.802 µM (active) and the GI50 (Hs-578T) was 1.7 µM (inactive). The GI50 (NCI/ADR-RES) was 0.507 µM (active), the GI50 (U-251) was 2.28 µM (inactive) and the GI50 (LOX IMVI) was 0.995 µM (active). For the same molecule, the GI50 (MOLT-4) was 0.826 µM (active), the GI50 (NCI-H460) was 1.26 µM (inactive) and the GI50 (SK-OV-3) was 2.82 µM (inactive). The GI50 (OVCAR-3) was 0.398 µM (active), the GI50 (RPMI-8226) was 0.659 µM (active) and the GI50 (HL-60) was 0.0518 µM (active). For the same molecule, the GI50 (COLO 205) was 1.87 µM (inactive), the GI50 (TK-10) was 5.15 µM (inactive) and the GI50 (M14) was 0.951 µM (active). The GI50 (NCI-H522) was 1.54 µM (inactive), the GI50 (ACHN) was 1.26 µM (inactive) and the GI50 (SNB-75) was 1.32 µM (inactive). For the same molecule, the GI50 (SK-MEL-5) was 384 nM (active), the GI50 (MDA-MB-231) was 3.63 µM (inactive) and the GI50 (SNB-19) was 2.84 µM (inactive). For the same molecule, the GI50 (CCRF-CEM) was 0.711 µM (active), the GI50 (A498) was 1.3 µM (inactive) and the GI50 (NCI-H23) was 4.67 µM (inactive).

Source: ChEMBL document CHEMBL1201862, “PubChem BioAssay data set” (2004)
